# Source: US10449175B2, “Rinse-off chemical mousse containing benzoyl peroxide” (GALDERMA RESEARCH & DEVELOPMENT, priority 2014, dated 2019)
# Experiment: Stability over time of foaming surfactants in formulation intermediate B with high sodium bicarbonate
# Format: physicochemical
# Details: incorporated in formulation intermediate B, high concentration of sodium bicarbonate
# Description: The applicant company has known how to select a foaming surfactant which is stable over time in the presence of a high concentration of sodium bicarbonate. The following surfactants were tested in the mixture: Sodium C14-C16 Olefin Sulfonate sold by Clariant under the name Hostapur® OSB or else Hostapur® OS Liq but also Nansa® LSS 495-H sold by Huntsman, Rodacal LSS 80 RPB from Rhodia, BIO-Terge® AS-90 beads from Stepan, Sodium Cocoyl Glycinate sold by Clariant under the name Hostapon® SG, Sodium Cocoyl Isethionate sold by Clariant under the name Hostapon® SCI85 G, Sodium Lauroyl Methyl Isethionate sold by Innospec under the name Iselux® LG, Decyl Glucoside sold by Cognis under the name Plantacare® 2000 Up, Zinc Coceth Sulfate sold by Zschimmer & Schwarz under the name Zetesol® Zn, Glyceryl Monolaurate sold by Rossow under the name POEM® DL 100, and Disodium PEG-5 Laurylcitrate Sulfosuccinate sold by Evonik under the name Rewopol SB C55®.
substance,measurement,value
Sodium C14-16 Olefin Sulfonate,"retention of foaming and organoleptic properties (color, odor)",retained its foaming properties and its organoleptic properties
